# Target: jack bean urease (EC 3.5.1.5) (Canavalia ensiformis, UniProt P07374)
# Assay: Urease inhibition method
# Format: biochemical
# Details: not given
# jack bean urease (EC 3.5.1.5), sequence (P07374 whole entry, looked up): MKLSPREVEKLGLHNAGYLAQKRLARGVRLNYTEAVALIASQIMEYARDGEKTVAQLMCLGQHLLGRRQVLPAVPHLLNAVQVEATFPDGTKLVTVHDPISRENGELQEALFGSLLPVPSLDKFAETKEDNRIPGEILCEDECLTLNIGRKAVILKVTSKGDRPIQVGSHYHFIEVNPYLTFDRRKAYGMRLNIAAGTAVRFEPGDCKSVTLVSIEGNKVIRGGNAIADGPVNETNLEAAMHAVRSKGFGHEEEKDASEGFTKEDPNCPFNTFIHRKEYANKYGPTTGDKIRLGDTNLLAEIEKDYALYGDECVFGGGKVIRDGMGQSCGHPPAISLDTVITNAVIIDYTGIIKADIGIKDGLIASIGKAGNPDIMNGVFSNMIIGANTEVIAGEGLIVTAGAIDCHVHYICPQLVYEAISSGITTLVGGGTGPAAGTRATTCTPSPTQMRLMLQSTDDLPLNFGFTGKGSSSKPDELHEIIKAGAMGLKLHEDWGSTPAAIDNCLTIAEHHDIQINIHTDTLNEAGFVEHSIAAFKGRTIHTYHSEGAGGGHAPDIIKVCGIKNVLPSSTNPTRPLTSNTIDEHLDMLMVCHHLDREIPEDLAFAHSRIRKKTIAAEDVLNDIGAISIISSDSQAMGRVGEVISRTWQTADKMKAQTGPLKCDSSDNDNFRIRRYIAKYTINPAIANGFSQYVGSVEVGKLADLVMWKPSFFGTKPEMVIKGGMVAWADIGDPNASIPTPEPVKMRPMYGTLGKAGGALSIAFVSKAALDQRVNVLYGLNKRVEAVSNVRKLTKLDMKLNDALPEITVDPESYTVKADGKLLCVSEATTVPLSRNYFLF
row,Compound,IC50 [nM]
1,"O=C1NC(=O)C(C2c3ccccc3C(=O)N2c2ccccc2)C(=O)N1 (stereo not shown) [5a, 5-(3-Oxo-2-phenylisoindolin-1-yl) Barbituric Acid]",1850 ± 60
2,"COc1ccc(N2C(=O)c3ccccc3C2C2C(=O)NC(=O)NC2=O)cc1 (stereo not shown) [5b, 5-(2-(4-Methoxyphenyl)-3-oxoisoindolin-1-yl) Barbituric Acid]",820 ± 30
3,"O=C1NC(=O)C(C2c3ccccc3C(=O)N2c2ccc(Cl)cc2)C(=O)N1 (stereo not shown) [5c, 5-(2-(4-Chlorophenyl)-3-oxoisoindolin-1-yl) Barbituric Acid]",1250 ± 50
4,"Cc1ccc(N2C(=O)c3ccccc3C2C2C(=O)NC(=O)NC2=O)cc1C (stereo not shown) [5d, 5-(2-(3,4-Dimethylphenyl)-3-oxoisoindolin-1-yl) Barbituric Acid]",1070 ± 20
5,"O=C1NC(=O)C(C2c3ccccc3C(=O)N2c2ccc(Br)cc2)C(=O)N1 (stereo not shown) [5e, 5-(2-(4-Bromophenyl)-3-oxoisoindolin-1-yl) Barbituric Acid]",960 ± 10
6,"O=C1NC(=O)C(C2c3ccccc3C(=O)N2c2ccc(Cl)c(Cl)c2)C(=O)N1 (stereo not shown) [5f, 5-(2-(3,4-Dichlorophenyl)-3-oxoisoindolin-1-yl) Barbituric Acid]",960 ± 10
7,"Cc1ccc(N2C(=O)c3ccccc3C2C2C(=O)NC(=O)NC2=O)cc1 (stereo not shown) [5g, 5-(3-Oxo-2-(p-tolyl) Isoindolin-1-yl) Barbituric Acid]",1090 ± 70
8,"O=C1NC(=O)C(C2c3ccccc3C(=O)N2c2ccc(F)cc2)C(=O)N1 (stereo not shown) [5h, 5-(2-(4-Fluorophenyl)-3-oxoisoindolin-1-yl) Barbituric Acid]",1280 ± 40
9,"O=C1NC(=O)C(C2c3ccccc3C(=O)N2c2cccc(Cl)c2)C(=O)N1 (stereo not shown) [5i, 5-(2-(3-Chlorophenyl)-3-oxoisoindolin-1-yl) Barbituric Acid]",1220 ± 50
10,"O=C1NC(=O)C(C2c3ccccc3C(=O)N2c2cc(Cl)cc(Cl)c2)C(=O)N1 (stereo not shown) [5j, 5-(2-(3,5-Dichlorophenyl)-3-oxoisoindolin-1-yl) Barbituric Acid]",1780 ± 100
11,"CC(C)CN1C(=O)c2ccccc2C1C1C(=O)NC(=O)NC1=O (stereo not shown) [5k, 5-(2-Isobutyl-3-oxoisoindolin-1-yl) Barbituric Acid]",1620 ± 50
12,"CC(C)N1C(=O)c2ccccc2C1C1C(=O)NC(=O)NC1=O (stereo not shown) [5l, 5-(2-Isopropyl-3-oxoisoindolin-1-yl) Barbituric Acid]",1850 ± 60
13,"COc1ccc(N2C(=O)c3ccccc3C2C2C(=O)N(C)C(=O)N(C)C2=O)cc1 (stereo not shown) [5m, 1,3-Dimethyl-5-(2-(4-methoxyphenyl)-3-oxoisoindolin-1-yl) Barbituric Acid]",970 ± 10
14,"COc1ccc(N2C(=O)c3ccccc3C2C2C(=O)NC(=S)NC2=O)cc1 (stereo not shown) [5n, 5-(2-(4-Methoxyphenyl)-3-oxoisoindolin-1-yl)-2-thiobarbituric Acid]",1340 ± 10

# Same assay, conditions: read-out: IC50 ± SEM; jack bean urease; triplicate, mean ± SEM
row,Compound,IC50 [nM]
1,"NC(N)=S [thiourea, reference compound]",22000 ± 1200

# Tested on: not listed separately
# Assay: Solubility in solvents for NMR
# Format: physicochemical
# Details: not given
row,Compound,solubility in solvents
1,"CN1C(=O)C(C2OC(=O)c3ccccc32)C(=O)N(C)C1=O (stereo not shown) [3b, 1,3-Dimethyl-5-(3-oxo-1,3-dihydroisobenzofuran-1-yl) Barbituric Acid]",soluble in CHCl3
